Experimental data: article PMC7567792, “GPAHex-A synthetic biology platform for Type IV–V glycopeptide antibiotic production and discovery” (Nature Communications, 2020)
≈ marks a conversion by molar mass, not a printed value.

Assays:
[1] = test system: S. coelicolor M1154/pAMX4/pGP6738; assay: MIC, antibiotic susceptibility testing; format: cell-based; settings: Bennett's media
Method: (§1) Antibiotic susceptibility was tested using standard procedures in Mueller-Hinton Broth for most strains. Enterococcus strains were grown in Brain Heart Infusion media (BHI; BD Biosciences). Streptomyces MICs were determined in Bennett’s media (10 g potato starch, 2 g casamino acids, 1.8 g yeast extract, 0.2 g KCl, 0.2 g MgSO4·7H2O, 0.24 g NaNO3, 4 mg FeSO4·7H2O, 1 L ddH2O, pH 6.8).

[2] = test system: S. coelicolor M1154; assay: MIC, antibiotic susceptibility testing; format: cell-based; settings: Bennett's media
Method: as §1

[3] = test system: B. subtilis 168; assay: Brightfield microscopy of cell morphology at sub-MIC; format: cell-based; settings: B. subtilis 168 grown with sub-MIC (0.6× MIC, 3.2 µg/mL GP6738) to mid-log phase
[4] = test system: panel of indicator strains; assay: MIC determination against a panel of indicator strains, comparison of Type V GPAs; format: cell-based
Method: as §1

[5] = test system: LytD; assay: Peptidoglycan autolysin digestion in vitro, LytD; format: biochemical, B. subtilis 168; settings: LytD 10 µg/mL, 1 mg/mL B. subtilis PG, 200 mM NaCl, 50 mM MES-NaOH pH 5.5, 30 min preincubation, OD600, 37 °C, triplicate
Method: (§2) The muramidase mutanolysin was purchased from Sigma. The glucosaminidase domain from LytD was cloned from B. subtilis 168 into pET28 between NcoI and XhoI restriction sites for introduction of C-term 6× His. Construct was expressed from E. coli BL21(DE3) pLysS by inoculating 1 L of LB media 1:50 from an overnight culture, then growing at 37 °C until OD600 reached 0.6, at which time the cells were induced with 1 mM IPTG and grown for 18 h at 16 °C. Native LytD-6× His was purified by Ni-NTA affinity chromatography and cation exchange chromatography. Protein purity was >95% as assessed by SDS-PAGE analysis.
(§3) B. subtilis peptidoglycan for binding and digestion assays was prepared by harvesting the cells (OD600 0.6–0.7), boiled in 4% SDS, and washed and sonicated to break up sacculi, followed by α-amylase and DNase treatment, and digested with pronase overnight. The peptidoglycan was boiled in 2% SDS again, washed, and teichoic acids were hydrolysed with 1 M HCl. The peptidoglycan was washed with water to pH 6.0 and lyophilized to use. Peptidoglycan was digested under optimized conditions with either mutanolysin (20 µg/mL, 1 mg/mL PG, 20 mM sodium acetate, pH 6.5) or LytD (10 µg/mL, 1 mg/mL PG, 200 mM NaCl, 50 mM MES-NaOH, pH 5.5). […] The plate was covered with a clear, breathable film to prevent evaporation, and OD600 was tracked on a Tecan sunrise microplate reader shaking at 37 °C.

[6] = test system: mutanolysin; assay: Peptidoglycan autolysin digestion in vitro, mutanolysin; format: biochemical; settings: mutanolysin 20 µg/mL, 1 mg/mL B. subtilis PG, 20 mM sodium acetate pH 6.5, 30 min preincubation, OD600, 37 °C, triplicate
Method: as §2, §3

[7] = test system: E. faecium ATCC29212; format: cell-based; settings: Brain Heart Infusion media
Method: as §1

[8] = test system: E. faecium ATCC70022 (VREA); format: cell-based; settings: Brain Heart Infusion media
Method: as §1

[9] = test system: E. coli BW25113; format: cell-based; settings: Mueller-Hinton Broth
Method: as §1

[10] = test system: E. faecium ATCC19434; format: cell-based; settings: Brain Heart Infusion media
Method: as §1

[11] = test system: S. venezuelae ATCC10712; format: cell-based; settings: Bennett's media
Method: as §1

[12] = test system: E. coli BW25113ΔbamBΔtolC; format: cell-based; settings: Mueller-Hinton Broth
Method: as §1

[13] = test system: B. subtilis 168; format: cell-based; settings: Mueller-Hinton Broth
Method: as §1

[14] = test system: E. faecium ATCC51299 (VREB); format: cell-based; settings: Brain Heart Infusion media
Method: as §1

[15] = test system: S. aureus ATCC29213; format: cell-based; settings: Mueller-Hinton Broth
Method: as §1

[16] = test system: Vancomycin intermediate MRSA Mu50; format: cell-based, S. aureus; settings: Mueller-Hinton Broth
Method: as §1

[17] = test system: hVISA MRSA Mu3; format: cell-based, S. aureus; settings: Mueller-Hinton Broth
Method: as §1

[18] = test system: MRSA USA300; format: cell-based, S. aureus; settings: Mueller-Hinton Broth
Method: as §1

[19] = test system: B. subtilis 168; assay: Cell lysis assay / growth tracking (OD600); format: cell-based
Method: Early exponential phase B. subtilis 168 (OD600 ~0.25) grown in LB media was dispensed 100 µL per well into a round bottom 96 well plate. Antibiotics were supplemented to the appropriate concentration, and where appropriate lytic agents were added (50 µg/mL fosfomycin, 100 µg/mL ampicillin, 100 mM sodium azide). The plate was covered with a clear, breathable film and OD600 was monitored on a Tecan sunrise microplate reader at 37 °Cwith shaking.

[20] = Peptidoglycan binding assay; set-up: species or system B. subtilis; settings: 0.1 mg/mL GP6738 in water with 20% DMSO, PG 25:1 to 200:1 w/w, 1–2 h at 37 °C, unbound compound by HPLC
Method: To assess peptidoglycan binding, GP6738 was diluted to 0.1 mg/mL in water with 20% (v/v) DMSO to aid GP6738 solubility. For each 100 μL binding assay, B. subtilis peptidoglycan was added to 0 mg/mL, 2.5 mg/mL, 5 mg/mL, 10 mg/mL or 20 mg/mL for 0, 25:1, 50:1, 100:1 and 200:1 w/w ratios, respectively. Mixtures were incubated for 1–2 h at 37 °C, then centrifuged for 10 min to thoroughly pellet insoluble material, and the supernatant was removed for analysis. Samples were prepared for HPLC analysis by the addition of NH4OH to 0.01% (v/v), and 50 µL was injected on the HPLC. Analysis was performed using a Thermo Hypersil GOLD aQ C18 4.6 × 150 mm column and the following gradient at 0.8 mL/min, 40 °C: t = 0–2 min 0% solvent B, t = 10–13 min 65% solvent B, t = 14 min 0% solvent B (solvent A: 0.01% v/v NH4OH in water [pH 9.6] and solvent B: ACN).

[21] = test system: Bacillus subtilis 168; assay: Antibacterial activity assay (bioassay) of fermentation extracts; format: cell-based; settings: B. subtilis 168
Source text: Supplementary Fig. 4. Bioassay of corbomycin heterologous expression extracts against B. subtilis 168. Crude extracts from S. coelicolor M1154/pGP1529 strain do […]
from S. coelicolor M1154/pAMX4/pGP1529. […]
parental strain S. sp. WAC01529 are likely the result of uncharacterized compounds produced by this strain, as equivalent amounts of purified corbomycin as are present […]
Source data are provided as a Source Data file.
(1 picture or pasted object on this page, not shown here)

[22] = amide linkage changed to an ester; cited from earlier work
Source text: Glycopeptide antibiotics (GPAs), such as vancomycin and teicoplanin (Fig. 1a), are microbial natural products (NPs) that are essential for the control of infections caused by Gram-positive pathogens. Vancomycin and teicoplanin inhibit bacterial cell wall biosynthesis by binding to the D-Alanine-D-Alanine terminating dipeptide of growing peptidoglycan and its extracellular precursors. Like all antibiotics, GPAs are vulnerable to resistance. Vancomycin resistance occurs through reprogramming of cell wall biosynthesis, mediated by a vanRSHAX resistance cassette that replaces the D-Ala-D-Ala te ...

CC(C)C(NC(=O)C(NC(=O)C(N)c1cc(O)cc(O)c1)c1cc(O)cc(O)c1)C(=O)NC1Cc2c[nH]c3cc(ccc23)-c2cc3cc(c2O)Oc2ccc(cc2)CC(C(=O)NC(C(=O)O)c2cc(O)cc(O)c2)NC(=O)C(c2cc(O)cc(O)c2)NC(=O)C3NC(=O)C(c2cc(O)cc(O)c2)NC1=O (stereo not shown) [GP6738]
MIC [1]: 16 µg/mL (≈ 11.1 µM)
MIC [2]: 16 µg/mL (≈ 11.1 µM)
cell morphology [3]: characteristic elongated cell morphology of autolysin inhibition
fold higher MIC of GP6738 compared to corbomycin [4]: 2–16 fold
block of peptidoglycan digestion by LytD [5]: blocks cell wall digestion
block of peptidoglycan digestion by mutanolysin [6]: blocks cell wall digestion
MIC [7]: 64 µg/mL (≈ 44.5 µM)
MIC [8]: 64 µg/mL (≈ 44.5 µM)
MIC [9]: > 256 µg/mL
MIC [10]: 64 µg/mL (≈ 44.5 µM)
MIC [11]: 16 µg/mL (≈ 11.1 µM)
MIC [12]: > 256 µg/mL
MIC [13]: 4 µg/mL (≈ 2.78 µM)
MIC [14]: 64 µg/mL (≈ 44.5 µM)
MIC [15]: 4 µg/mL (≈ 2.78 µM)
MIC [16]: 2 to 4 µg/mL
MIC [17]: 4 µg/mL (≈ 2.78 µM)
MIC [18]: 4 µg/mL (≈ 2.78 µM)
bacteriostatic or bacteriolytic effect, growth tracking ([19]; B. subtilis 168, 10-fold MIC, OD600, 37 °C, n = 3): bacteriostatic phenotype
block of cell lysis induced by lytic agents ([19]; B. subtilis 168, 10× MIC, 50 µg/mL fosfomycin, 100 µg/mL ampicillin or 100 mM sodium azide, OD600, n = 3): able to block cell lysis
binding to peptidoglycan [20]: binding to peptidoglycan

Complestatin
MIC [2]: 4 µg/mL
MIC [7]: 32 µg/mL
MIC [8]: 64 µg/mL
MIC [9]: > 256 µg/mL
MIC [10]: 64 µg/mL
MIC [11]: 2 µg/mL
MIC [12]: 64 µg/mL
MIC [13]: 0.5 µg/mL
MIC [14]: 32 µg/mL
MIC [15]: 2 µg/mL
MIC [16]: 0.5 µg/mL
MIC [17]: 0.5 µg/mL
MIC [18]: 2 µg/mL

Corbomycin
MIC [1]: 4 µg/mL
MIC [2]: 4 µg/mL
growth inhibition / zones of inhibition [21]: do not give zones
MIC [7]: 4 µg/mL
MIC [8]: 4 µg/mL
MIC [9]: > 256 µg/mL
MIC [10]: 4 µg/mL
MIC [11]: 2 µg/mL
MIC [12]: 32 µg/mL
MIC [13]: 1 µg/mL
MIC [14]: 4 µg/mL
MIC [15]: 1 µg/mL
MIC [16]: 1 µg/mL
MIC [17]: 1 µg/mL
MIC [18]: 1 µg/mL

CN[C@H](CC(C)C)C(=O)N[C@H]1C(=O)N[C@@H](CC(N)=O)C(=O)N[C@H]2C(=O)N[C@H]3C(=O)N[C@H](C(=O)N[C@H](C(=O)O)c4cc(O)cc(O)c4-c4cc3ccc4O)[C@H](O)c3ccc(c(Cl)c3)Oc3cc2cc(c3O[C@@H]2O[C@H](CO)[C@@H](O)[C@H](O)[C@H]2O[C@H]2C[C@](C)(N)[C@H](O)[C@H](C)O2)Oc2ccc(cc2Cl)[C@H]1O [Vancomycin]
MIC [1]: 256 µg/mL (≈ 177 µM)
MIC [2]: 256 µg/mL (≈ 177 µM)
decrease of affinity of vancomycin on change of D-Ala-D-Ala to D-Ala-D-Lactate [22]: 1000 fold
MIC [7]: 2 µg/mL (≈ 1.38 µM)
MIC [8]: > 256 µg/mL
MIC [9]: 256 µg/mL (≈ 177 µM)
MIC [10]: 2 µg/mL (≈ 1.38 µM)
MIC [11]: 0.25 µg/mL (≈ 0.173 µM)
MIC [12]: 8 µg/mL (≈ 5.52 µM)
MIC [13]: 0.25 µg/mL (≈ 0.173 µM)
MIC [14]: 32 µg/mL (≈ 22.1 µM)
MIC [15]: 1 µg/mL (≈ 0.69 µM)
MIC [16]: 8 µg/mL (≈ 5.52 µM)
MIC [17]: 2 µg/mL (≈ 1.38 µM)
MIC [18]: 1 µg/mL (≈ 0.69 µM)
